Measurements: ChEMBL document CHEMBL4219219, “The synthesis and antistaphylococcal activity of N-sulfonaminoethyloxime derivatives of dehydroabietic acid” (Bioorg Med Chem Lett, 2018)
≈ marks a conversion by molar mass, not a printed value. Calls of active or inactive are those of the source. The rule behind the calls is not given here.

How the values were obtained:
Escherichia coli = assay: Antibacterial activity against Escherichia coli AB1157 at 50 ug/ml after 18 hrs by two-fold serial dilution method; type: functional, organism-based
Staphylococcus aureus [1] = assay: Antistaphylococcal activity against Staphylococcus aureus Newman after 18 hrs by two-fold serial dilution method; type: functional
Staphylococcus aureus [2] = assay: Antistaphylococcal activity against aminoglycosides/tetracycline-resistant Staphylococcus aureus NRS-1 after 18 hrs by two-fold serial dilution method; type: functional; details: NRS-1, 18 h
Staphylococcus aureus [3] = assay: Antistaphylococcal activity against erythromycin-resistant Staphylococcus aureus NRS-70 after 18 hrs by two-fold serial dilution method; type: functional; details: NRS-70, 18 h
Staphylococcus aureus [4] = assay: Antistaphylococcal activity against oxacillin/tetracycline-resistant Staphylococcus aureus NRS-100 after 18 hrs by two-fold serial dilution method; type: functional; details: NRS-100, 18 h
Staphylococcus aureus [5] = assay: Antistaphylococcal activity against gentamicin-resistant Staphylococcus aureus NRS-108 after 18 hrs by two-fold serial dilution method; type: functional; details: NRS-108, 18 h
Staphylococcus aureus [6] = assay: Antistaphylococcal activity against linezolid-resistant Staphylococcus aureus NRS-271 containing phage type E-MRSA 15 after 18 hrs by two-fold serial dilution method; type: functional; details: NRS-271, 18 h

| SMILES | Activity (Escherichia coli) | MIC (Staphylococcus aureus [1]) [µg/mL] | MIC (Staphylococcus aureus [2]) [µg/mL] | MIC (Staphylococcus aureus [3]) [µg/mL] | MIC (Staphylococcus aureus [4]) [µg/mL] | MIC (Staphylococcus aureus [5]) [µg/mL] | MIC (Staphylococcus aureus [6]) [µg/mL] |
| --- | --- | --- | --- | --- | --- | --- | --- |
| CC(C)c1cc2c(cc1Br)[C@@]1(C)CCC[C@@](C)(C(=O)O)[C@@H]1C/C2=N\OCCNS(=O)(=O)c1ccc(C(C)(C)C)cc1 | inactive | 3.13 to 6.25 (≈ 4.83 to 9.65 µM) |  |  |  |  |  |
| CC(C)c1cc2c(cc1Br)[C@@]1(C)CCC[C@@](C)(C(=O)O)[C@@H]1C/C2=N\OCCNS(=O)(=O)c1cccc2cccnc12 | inactive | 1.56 to 3.13 (≈ 2.43 to 4.87 µM) | 1.56 to 3.13 (≈ 2.43 to 4.87 µM) | 1.56 to 3.13 (≈ 2.43 to 4.87 µM) | 3.13 to 6.25 (≈ 4.87 to 9.73 µM) | 3.13 to 6.25 (≈ 4.87 to 9.73 µM) | 3.13 to 6.25 (≈ 4.87 to 9.73 µM) |
| COc1ccc(S(=O)(=O)NCCO/N=C2\C[C@H]3[C@](C)(C(=O)O)CCC[C@]3(C)c3cc(Br)c(C(C)C)cc32)cc1 | inactive | 3.13 to 6.25 (≈ 5.04 to 10.1 µM) |  |  |  |  |  |
| CC(C)c1ccc2c(c1)CC[C@H]1[C@](C)(C(=O)O)CCC[C@]21C [DEHYDROABIETIC ACID] |  | 12.5 to 20 (≈ 41.6 to 66.6 µM) | 12.5 to 25 (≈ 41.6 to 83.2 µM) | 12.5 to 25 (≈ 41.6 to 83.2 µM) | 12.5 to 25 (≈ 41.6 to 83.2 µM) | 12.5 to 25 (≈ 41.6 to 83.2 µM) | 12.5 to 25 (≈ 41.6 to 83.2 µM) |
| CC(C)c1cc2c(cc1Br)[C@@]1(C)CCC[C@@](C)(C(=O)O)[C@@H]1C/C2=N\OCCNS(=O)(=O)C1CC1 | inactive | 6.25 to 12.5 (≈ 11.3 to 22.5 µM) |  |  |  |  |  |
| CC(C)c1cc2c(cc1Br)[C@@]1(C)CCC[C@@](C)(C(=O)O)[C@@H]1C/C2=N\OCCNS(=O)(=O)c1cc(C(F)(F)F)cc(C(F)(F)F)c1 | inactive | 0.78 to 1.56 (≈ 1.07 to 2.14 µM) | > 50 | 0.78 to 1.56 (≈ 1.07 to 2.14 µM) | > 50 | 0.78 to 1.56 (≈ 1.07 to 2.14 µM) | > 50 |
| CC(C)c1cc2c(cc1Br)[C@@]1(C)CCC[C@@](C)(C(=O)O)[C@@H]1C/C2=N\OCCNS(=O)(=O)c1ccc(Cl)s1 | inactive | 1.56 to 3.13 (≈ 2.47 to 4.95 µM) | 1.56 to 3.13 (≈ 2.47 to 4.95 µM) | 0.78 to 1.56 (≈ 1.23 to 2.47 µM) | 1.56 to 3.13 (≈ 2.47 to 4.95 µM) | 1.56 to 3.13 (≈ 2.47 to 4.95 µM) | 1.56 to 3.13 (≈ 2.47 to 4.95 µM) |
| CC(C)c1cc2c(cc1Br)[C@@]1(C)CCC[C@@](C)(C(=O)O)[C@@H]1C/C2=N\OCCNS(=O)(=O)c1ccc2ccccc2c1 | inactive | 1.56 to 3.13 (≈ 2.43 to 4.88 µM) | 3.13 to 6.25 (≈ 4.88 to 9.74 µM) | 1.56 to 3.13 (≈ 2.43 to 4.88 µM) | 3.13 to 6.25 (≈ 4.88 to 9.74 µM) | 1.56 to 3.13 (≈ 2.43 to 4.88 µM) | 3.13 to 6.25 (≈ 4.88 to 9.74 µM) |
| CC(C)c1cc2c(cc1Br)[C@@]1(C)CCC[C@@](C)(C(=O)O)[C@@H]1C/C2=N\OCCNS(=O)(=O)c1ccc(Br)s1 | inactive | 1.56 to 3.13 (≈ 2.31 to 4.63 µM) | 1.56 to 3.13 (≈ 2.31 to 4.63 µM) | 1.56 to 3.13 (≈ 2.31 to 4.63 µM) | 1.56 to 3.13 (≈ 2.31 to 4.63 µM) | 1.56 to 3.13 (≈ 2.31 to 4.63 µM) | 1.56 to 3.13 (≈ 2.31 to 4.63 µM) |
| CC(C)c1cc2c(cc1Br)[C@@]1(C)CCC[C@@](C)(C(=O)O)[C@@H]1C/C2=N\OCCN | inactive | > 50 |  |  |  |  |  |
| CC(C)c1cc2c(cc1Br)[C@@]1(C)CCC[C@@](C)(C(=O)O)[C@@H]1C/C2=N\OCCNS(=O)(=O)c1ccc(Cl)cc1 | inactive | 0.78 to 1.56 (≈ 1.25 to 2.49 µM) | 1.56 to 3.13 (≈ 2.49 to 5 µM) | 0.78 to 1.56 (≈ 1.25 to 2.49 µM) | 1.56 to 3.13 (≈ 2.49 to 5 µM) | 1.56 to 3.13 (≈ 2.49 to 5 µM) | 1.56 to 3.13 (≈ 2.49 to 5 µM) |
| Cc1ccc(S(=O)(=O)NCCO/N=C2\C[C@H]3[C@](C)(C(=O)O)CCC[C@]3(C)c3cc(Br)c(C(C)C)cc32)cc1 | inactive | 1.56 to 3.13 (≈ 2.58 to 5.17 µM) | 3.13 to 6.25 (≈ 5.17 to 10.3 µM) | 1.56 to 3.13 (≈ 2.58 to 5.17 µM) | 3.13 to 6.25 (≈ 5.17 to 10.3 µM) | 1.56 to 3.13 (≈ 2.58 to 5.17 µM) | 3.13 to 6.25 (≈ 5.17 to 10.3 µM) |
| CC(C)c1cc2c(cc1Br)[C@@]1(C)CCC[C@@](C)(C(=O)O)[C@@H]1C/C2=N\OCCNS(=O)(=O)c1ccc(Cl)cc1Cl | inactive | 0.78 to 1.56 (≈ 1.18 to 2.36 µM) | 0.78 to 1.56 (≈ 1.18 to 2.36 µM) | 0.39 to 0.78 (≈ 0.59 to 1.18 µM) | 0.78 to 1.56 (≈ 1.18 to 2.36 µM) | 0.78 to 1.56 (≈ 1.18 to 2.36 µM) | 0.78 to 1.56 (≈ 1.18 to 2.36 µM) |
| CC(C)c1cc2c(cc1Br)[C@@]1(C)CCC[C@@](C)(C(=O)O)[C@@H]1C/C2=N\OCCNS(=O)(=O)c1c(F)cccc1F | inactive | > 50 |  |  |  |  |  |
| CC(C)c1cc2c(cc1Br)[C@@]1(C)CCC[C@@](C)(C(=O)O)[C@@H]1C/C2=N\OCCNS(=O)(=O)c1ccccc1Cl | inactive | 0.78 to 1.56 (≈ 1.25 to 2.49 µM) | 1.56 to 3.13 (≈ 2.49 to 5 µM) | 0.78 to 1.56 (≈ 1.25 to 2.49 µM) | 1.56 to 3.13 (≈ 2.49 to 5 µM) | 1.56 to 3.13 (≈ 2.49 to 5 µM) | 1.56 to 3.13 (≈ 2.49 to 5 µM) |
| Cc1ccc(C)c(S(=O)(=O)NCCO/N=C2\C[C@H]3[C@](C)(C(=O)O)CCC[C@]3(C)c3cc(Br)c(C(C)C)cc32)c1 | inactive | 1.56 to 3.13 (≈ 2.52 to 5.05 µM) | 3.13 to 6.25 (≈ 5.05 to 10.1 µM) | 0.78 to 1.56 (≈ 1.26 to 2.52 µM) | 1.56 to 3.13 (≈ 2.52 to 5.05 µM) | 1.56 to 3.13 (≈ 2.52 to 5.05 µM) | 3.13 to 6.25 (≈ 5.05 to 10.1 µM) |
| CC(C)c1cc2c(cc1Br)[C@@]1(C)CCC[C@@](C)(C(=O)O)[C@@H]1C/C2=N\OCCNS(=O)(=O)c1c(Cl)cccc1Cl | inactive | 1.56 to 3.13 (≈ 2.36 to 4.74 µM) | 1.56 to 3.13 (≈ 2.36 to 4.74 µM) | 0.78 to 1.56 (≈ 1.18 to 2.36 µM) | 1.56 to 3.13 (≈ 2.36 to 4.74 µM) | 1.56 to 3.13 (≈ 2.36 to 4.74 µM) | 1.56 to 3.13 (≈ 2.36 to 4.74 µM) |
